From ChEMBL document CHEMBL5291721, “A preclinical secondary pharmacology resource illuminates target-adverse drug reaction associations of marketed drugs” (Nat Commun, 2023)

What was measured:
[1] = target: T1, Bile acid receptor (Homo sapiens, UniProt Q96RI1); type: functional
T1 sequence (Q96RI1 whole entry): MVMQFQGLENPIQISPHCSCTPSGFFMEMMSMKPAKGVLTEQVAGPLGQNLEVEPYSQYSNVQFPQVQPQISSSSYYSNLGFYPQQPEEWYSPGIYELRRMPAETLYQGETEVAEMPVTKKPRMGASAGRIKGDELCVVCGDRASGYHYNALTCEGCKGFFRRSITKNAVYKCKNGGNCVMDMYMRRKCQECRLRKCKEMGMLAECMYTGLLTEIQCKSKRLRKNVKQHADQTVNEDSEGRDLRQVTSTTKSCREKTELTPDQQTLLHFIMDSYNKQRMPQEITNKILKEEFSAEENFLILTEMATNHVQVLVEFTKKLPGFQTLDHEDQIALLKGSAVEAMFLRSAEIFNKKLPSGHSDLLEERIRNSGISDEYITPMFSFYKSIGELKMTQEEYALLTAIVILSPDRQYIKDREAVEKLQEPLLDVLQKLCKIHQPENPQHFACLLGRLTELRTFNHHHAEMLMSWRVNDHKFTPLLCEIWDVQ

[2] = target: 5-hydroxytryptamine receptor 2B (Homo sapiens, UniProt P41595)
Sequence of 5-hydroxytryptamine receptor 2B (P41595 whole entry): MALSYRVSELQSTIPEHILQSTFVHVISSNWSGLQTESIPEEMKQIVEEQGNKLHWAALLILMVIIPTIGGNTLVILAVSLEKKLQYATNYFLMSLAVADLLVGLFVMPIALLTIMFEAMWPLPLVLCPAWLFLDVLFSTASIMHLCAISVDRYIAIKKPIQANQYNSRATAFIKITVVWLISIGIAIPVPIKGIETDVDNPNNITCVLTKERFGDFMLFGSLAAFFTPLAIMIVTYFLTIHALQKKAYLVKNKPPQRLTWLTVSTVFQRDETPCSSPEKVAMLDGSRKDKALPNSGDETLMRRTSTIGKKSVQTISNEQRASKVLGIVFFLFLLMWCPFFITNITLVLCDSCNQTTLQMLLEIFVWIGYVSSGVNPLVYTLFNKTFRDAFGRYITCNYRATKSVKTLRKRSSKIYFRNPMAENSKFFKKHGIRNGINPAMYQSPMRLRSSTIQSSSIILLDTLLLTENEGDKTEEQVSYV

[3] = target: T2, 5-hydroxytryptamine receptor 1A (Homo sapiens, UniProt P08908)
T2 sequence (P08908 whole entry): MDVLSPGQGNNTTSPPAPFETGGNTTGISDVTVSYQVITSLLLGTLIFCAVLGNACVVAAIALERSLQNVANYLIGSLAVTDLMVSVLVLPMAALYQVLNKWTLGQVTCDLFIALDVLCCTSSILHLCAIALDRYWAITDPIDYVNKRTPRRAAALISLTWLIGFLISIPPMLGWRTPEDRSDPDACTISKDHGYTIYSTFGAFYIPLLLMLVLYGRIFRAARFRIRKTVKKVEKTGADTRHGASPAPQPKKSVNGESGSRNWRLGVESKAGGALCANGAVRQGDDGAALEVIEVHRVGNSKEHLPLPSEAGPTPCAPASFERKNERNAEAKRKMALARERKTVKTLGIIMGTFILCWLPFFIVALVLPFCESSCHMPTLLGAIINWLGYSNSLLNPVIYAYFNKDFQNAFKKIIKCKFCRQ
Further: assay procedure not described here.

Work on CC(C(=O)O)c1ccc2c(c1)[nH]c1ccc(Cl)cc12 (stereo not drawn) [CARPROFEN] yielded an AC50 [1] greater than 10 µM.
Work on C=C[C@H]1C[N@@]2CC[C@H]1C[C@@H]2[C@@H](O)c1ccnc2ccc(OC)cc12 [QUINIDINE] yielded an AC50 [2] of 0.976 µM.
COc1cc2nccc(Oc3ccc(NC(=O)C4(C(=O)Nc5ccc(F)cc5)CC4)cc3)c2cc1OC [CABOZANTINIB] gave an AC50 [3] greater than 30 µM.
